What is called IC50 is the point on the concentration scale where inhibition reaches its midpoint. The low end stands for greater potency in that assay, the high end for weaker potency in that assay.

This is an account of results in the Kinase Knowledgebase extract (Sharma et al. 2016).

The assay concerns the target MAPK14 (UniProt Q16539). Briefly: Inhibition of MAPK14 Kinase Activity.

Sequence of MAPK14 (Q16539 whole entry, looked up): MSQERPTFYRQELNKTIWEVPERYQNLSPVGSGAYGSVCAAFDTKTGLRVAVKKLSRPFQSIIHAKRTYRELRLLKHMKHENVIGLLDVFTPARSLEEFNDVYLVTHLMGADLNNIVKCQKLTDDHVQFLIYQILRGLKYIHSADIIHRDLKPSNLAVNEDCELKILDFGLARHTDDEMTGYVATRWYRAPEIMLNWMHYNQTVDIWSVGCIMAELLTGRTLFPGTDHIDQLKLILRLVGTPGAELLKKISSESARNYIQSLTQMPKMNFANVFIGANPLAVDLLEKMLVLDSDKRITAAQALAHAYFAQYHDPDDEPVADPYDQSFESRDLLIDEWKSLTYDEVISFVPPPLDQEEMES

`Cc1c(F)cc(C(=O)NC2CC2)cc1-c1ccc(C(=O)N[C@H](C)C(C)(C)C)cc1O`: the IC50 is under 10 µM.

For the compound `Cc1c(F)cc(C(=O)NC2CC2)cc1-c1ccc(C(=O)NCC(C)(C)C)cc1CO`, the IC50 is under 10 µM.

`Cc1c(F)cc(C(=O)NC2CC2)cc1-c1ccc(C(=O)NCC(C)(C)C)cc1OCCCN(C)C` displayed an IC50 of under 10 µM.

`Cc1ccc(C(=O)NC2CC2)cc1-c1ccc(C(=O)NCC(C)(C)C)cc1OCCCNC(C)C` returned a 50% inhibitory concentration (IC50) of under 10 µM.

In the case of `Cc1c(F)cc(C(=O)NC2CC2)cc1-c1ccc(C(=O)NCC(C)(C)C)cc1OCC(=O)N1CCOCC1`, the 50% inhibitory concentration (IC50) is under 10 µM.

`COc1cc(C(=O)NCC(C)C)ccc1-c1cc(C(=O)NC2CC2)cc(F)c1C` gave an IC50 of under 10 µM.

In turn, `CCNC(=O)Nc1cc(C(=O)NCC(C)(C)C)ccc1-c1cc(C(=O)NC2CC2)ccc1C` showed an IC50 of under 10 µM.

`CCCOc1cc(C(=O)NCC(C)(C)C)ccc1-c1cc(C(=O)NC2CC2)cc(F)c1C`: the IC50 is under 10 µM.

As for `CNC(=O)CCCOc1cc(C(=O)NCC(C)(C)C)ccc1-c1cc(C(=O)NC2CC2)cc(F)c1C`, the IC50 was under 10 µM.

The compound `Cc1c(F)cc(C(=O)NC2CC2)cc1-c1ccc(C(=O)NCC(C)(C)C)cc1OCCCC(=O)O` gave an IC50 of under 10 µM.

`Cc1c(F)cc(C(=O)NC2CC2)cc1-c1ccc(C(=O)NCC(C)(C)C)cc1OCCCCO` came in with an IC50 of under 10 µM.

`COCOc1cc(C(=O)NCC(C)C)ccc1-c1cc(C(=O)NC2CC2)cc(F)c1C` displayed an IC50 of under 10 µM.

For the compound `Cc1ccc(C(=O)NC2CC2)cc1-c1ccc(C(=O)NCC(C)(C)C)cc1OCCCN1CCCC1`, the IC50 was under 10 µM.

`COCOc1cc(C(=O)NCC(C)(C)C)ccc1-c1cc(C(=O)NC2CC2)cc(F)c1C`: the IC50 is under 10 µM.

Compound `COCOc1cc(C(=O)NCc2ccc(OC)cc2)ccc1-c1cc(C(=O)NC2CC2)cc(F)c1C` registered an IC50 of under 10 µM.

The compound `Cc1ccc(C(=O)NC2CC2)cc1-c1ccc(C(=O)NCC(C)(C)C)cc1N` yielded an IC50 of under 10 µM.

Turning to `Cc1c(F)cc(C(=O)NC2CC2)cc1-c1ccc(C(=O)NCC(C)(C)C)cc1OCCCC(=O)N(C)C`, the IC50 is under 10 µM.

On to `Cc1c(F)cc(C(=O)NC2CC2)cc1-c1ccc(C(=O)NCC(C)(C)C)cc1OCCCC(=O)N1CCOCC1`, for which the concentration for half-maximal inhibition (IC50) was under 10 µM.

In turn, `Cc1c(F)cc(C(=O)NC2CC2)cc1-c1ccc(C(=O)NCC(C)C)cc1O` displayed an IC50 of under 10 µM.

For the compound `Cc1ccc(C(=O)NC2CC2)cc1-c1ccc(C(=O)NCC(C)(C)C)cc1OCCCNCCO`, the IC50 was under 10 µM.

Turning to `Cc1c(F)cc(C(=O)NC2CC2)cc1-c1ccc(C(=O)NCC(C)(C)C)cc1OCCN1CCOCC1`, the IC50 is under 10 µM.

The compound `COc1ccc(CNC(=O)c2ccc(-c3cc(C(=O)NC4CC4)cc(F)c3C)c(O)c2)cc1` displayed an IC50 of under 10 µM.

As for `Cc1ccc(C(=O)NC2CC2)cc1-c1ccc(C(=O)NCC(C)(C)C)cc1OCCCN(C)C(C)C`, the IC50 was under 10 µM.

In turn, `CC(=O)Nc1cc(C(=O)NCC(C)(C)C)ccc1-c1cc(C(=O)NC2CC2)ccc1C` returned an IC50 of under 10 µM.

On to `Cc1c(F)cc(C(=O)NC2CC2)cc1-c1ccc(C(=O)NCC(C)(C)C)cc1OCCCC(=O)N1CCCC1`, for which the IC50 is under 10 µM.

As to `Cc1c(F)cc(C(=O)NC2CC2)cc1-c1ccc(C(=O)NCC2CC2)cc1O`, the concentration for half-maximal inhibition (IC50) is under 10 µM.

The compound `CCC(=O)Nc1cc(C(=O)NCC(C)(C)C)ccc1-c1cc(C(=O)NC2CC2)ccc1C` displayed an IC50 of under 10 µM.

Compound `Cc1ccc(C(=O)NC2CC2)cc1-c1ccc(C(=O)NCC(C)(C)C)cc1OCC(O)CO` (stereo not drawn) returned an IC50 of under 10 µM.

`COCOc1cc(C(=O)N[C@H](C)C(C)C)ccc1-c1cc(C(=O)NC2CC2)cc(F)c1C`: the IC50 was under 10 µM.

On to `COCOc1cc(C(=O)N[C@H](C)C(C)(C)C)ccc1-c1cc(C(=O)NC2CC2)cc(F)c1C`, for which the IC50 is under 10 µM.

As for `Cc1c(F)cc(C(=O)NC2CC2)cc1-c1ccc(C(=O)NCC(C)(C)C)cc1CNCC(C)(C)C`, the IC50 is under 10 µM.

As to `COc1cc(C(=O)NCC2CC2)ccc1-c1cc(C(=O)NC2CC2)cc(F)c1C`, the IC50 is under 10 µM.

Turning to `COc1cc(C(=O)N[C@H](C)C(C)C)ccc1-c1cc(C(=O)NC2CC2)cc(F)c1C`, the IC50 was under 10 µM.

In turn, `Cc1c(F)cc(C(=O)NC2CC2)cc1-c1ccc(C(=O)NCC(C)(C)C)cc1OCCNS(C)(=O)=O` registered an IC50 of under 10 µM.

Regarding `Cc1c(F)cc(C(=O)NC2CC2)cc1-c1ccc(C(=O)NCC2CC2)cc1OCCN(C)C`, the IC50 is under 10 µM.

`CCNC(=O)CCCOc1cc(C(=O)NCC(C)(C)C)ccc1-c1cc(C(=O)NC2CC2)cc(F)c1C` had an IC50 of under 10 µM.

In turn, `COc1cc(C(=O)N[C@H](C)C(C)(C)C)ccc1-c1cc(C(=O)NC2CC2)cc(F)c1C` displayed an IC50 of under 10 µM.

In the case of `Cc1ccc(C(=O)NC2CC2)cc1-c1ccc(C(=O)NCC(C)(C)C)cc1NS(C)(=O)=O`, the half-inhibitory concentration (IC50) was under 10 µM.

`Cc1c(F)cc(C(=O)NC2CC2)cc1-c1ccc(C(=O)N[C@H](C)C(C)C)cc1O` displayed an IC50 of under 10 µM.

`COc1cc(C(=O)NCC(C)(C)C)ccc1-c1cc(C(=O)NC2CC2)cc(F)c1C` registered a half-maximal inhibitory concentration (IC50) of under 10 µM.

`CCN(CC)CCCOc1cc(C(=O)NCC(C)(C)C)ccc1-c1cc(C(=O)NC2CC2)ccc1C`: the IC50 was under 10 µM.

In turn, `Cc1ccc(C(=O)NC2CC2)cc1-c1ccc(C(=O)NCC(C)(C)C)cc1OCCCN1CCOCC1` came in with a half-maximal inhibitory concentration (IC50) of under 10 µM.

`COc1ccc(CNC(=O)c2ccc(-c3cc(C(=O)NC4CC4)cc(F)c3C)c(OC)c2)cc1` gave an IC50 of under 10 µM.

Regarding `Cc1c(F)cc(C(=O)NC2CC2)cc1-c1ccc(C(=O)NCC(C)(C)C)cc1OCCCC(N)=O`, the half-inhibitory concentration (IC50) was under 10 µM.

The compound `Cc1c(F)cc(C(=O)NC2CC2)cc1-c1ccc(C(=O)NCC(C)(C)C)cc1OCCCc1nnco1` came in with an IC50 of under 10 µM.

In the case of `Cc1ccc(CNC(=O)c2ccc(-c3cc(C(=O)NC4CC4)cc(F)c3C)c(O)c2)cc1`, the IC50 was under 10 µM.

Regarding `Cc1c(F)cc(C(=O)NC2CC2)cc1-c1ccc(C(=O)NCC(C)(C)C)cc1O`, the half-maximal inhibitory concentration (IC50) was under 10 µM.

For `COCOc1cc(C(=O)NCC2CC2)ccc1-c1cc(C(=O)NC2CC2)cc(F)c1C`, the IC50 is under 10 µM.
